The supplement of paper PMC13380429
± gives the standard deviation of the averaged measurements.

Columns and labels:
Conditions in all cases: 72 h
[1] = tested on: U2OS; test: relative viability EC50 (midpoint between 100% and the lowest measured viability); higher = less toxic
[2] = tested on: Calu-3; test: as above
[3] = tested on: Caco-2; test: as above
[4] = tested on: HepG2; test: as above
[5] = tested on: Vero E6; test: as above
[6] = tested on: U2OS; test: cell viability relative to DMSO; higher = less toxic
[7] = tested on: Calu-3; test: as above
[8] = tested on: Caco-2; test: as above
[9] = tested on: HepG2; test: as above
[10] = tested on: Vero E6; test: as above
[11] = tested on: U2OS; test: drug sensitivity score (DSS) for viability; higher = more toxic; extreme values may be limits of the assay
[12] = tested on: Calu-3; test: as above
[13] = tested on: Caco-2; test: as above
[14] = tested on: HepG2; test: as above
[15] = tested on: Vero E6; test: as above

Structure (SMILES)	relative viability EC50 [1]	relative viability EC50 [2]	relative viability EC50 [3]	relative viability EC50 [4]	relative viability EC50 [5]	cell viability ([6]; 1 nM)	cell viability ([6]; 10 nM)	cell viability ([6]; 100 nM)	cell viability ([6]; 1000 nM)	cell viability ([6]; 10000 nM)	cell viability ([7]; 1 nM)	cell viability ([7]; 10 nM)	cell viability ([7]; 100 nM)	cell viability ([7]; 1000 nM)	cell viability ([7]; 10000 nM)	cell viability ([8]; 1 nM)	cell viability ([8]; 10 nM)	cell viability ([8]; 100 nM)	cell viability ([8]; 1000 nM)	cell viability ([8]; 10000 nM)	cell viability ([9]; 1 nM)	cell viability ([9]; 10 nM)	cell viability ([9]; 100 nM)	cell viability ([9]; 1000 nM)	cell viability ([9]; 10000 nM)	cell viability ([10]; 1 nM)	cell viability ([10]; 10 nM)	cell viability ([10]; 100 nM)	cell viability ([10]; 1000 nM)	cell viability ([10]; 10000 nM)	drug sensitivity score [11]	drug sensitivity score [12]	drug sensitivity score [13]	drug sensitivity score [14]	drug sensitivity score [15]
O=C(O)COCCN1CCN(C(c2ccccc2)c2ccc(Cl)cc2)CC1 (stereo not given) [cetirizine]	> 10 µM	> 10 µM	> 10 µM	> 10 µM	> 10 µM	95.5 ± 3.3%	98.05 ± 0.071%	96.2 ± 0.14%	93.8 ± 4.5%	102 ± 1.4%	94.7 ± 5.4%	105 ± 1.1%	100.25 ± 0.071%	95.8 ± 8.7%	102 ± 2.5%	91 ± 0.14%	81.8 ± 7.7%	97.8 ± 6.4%	88 ± 12%	107 ± 5.2%	100 ± 1.4%	100 ± 1.1%	101 ± 5.7%	103 ± 3.5%	102 ± 4.1%	93.7 ± 5.7%	97.3 ± 1.6%	88.5 ± 4.5%	95.3 ± 2.4%	100 ± 1.8%	0	0	0	0	0
COc1cc(Br)c(S(=O)(=O)Nc2ccc(C(F)(F)F)c(O[C@@H]3CCN(C)C3)c2)cc1OC	> 10 µM	> 10 µM	> 10 µM	> 10 µM	> 10 µM	105%	96.3%	95%	98.3%	96.6%	103%	94.7%	99.3%	98.1%	104%	102%	100%	101%	95.9%	95.9%	85.4%	107%	93.3%	96.7%	91.2%	91.5%	101%	99%	103%	94.9%	0	0	0	0	0
COc1ccc2[nH]c([S+]([O-])Cc3ncc(C)c(OC)c3C)nc2c1 (stereo not given) [omeprazole]	> 10 µM	> 10 µM	> 10 µM	> 10 µM	> 10 µM	106%	98.4%	101%	104%	98.6%	115%	94.3%	103%	104%	113%	104%	92.2%	103%	99%	95%	102%	96.6%	99.4%	99.5%	97%	98.5%	106%	102%	107%	103%	0	0	0	0	0
CCCCC(=O)N(Cc1ccc(-c2ccccc2-c2nnn[nH]2)cc1)[C@H](C(=O)O)C(C)C [valsartan]	> 10 µM	> 10 µM	> 10 µM	> 10 µM	> 10 µM	101%	98.8%	96.9%	97.2%	101%	103%	108%	95.6%	102%	90.9%	92%	94.3%	88.6%	102%	96%	107%	101%	93.4%	97.3%	103%	101%	99.8%	98.1%	100%	99.9%	0	0	0	0	0
Cc1ncc[nH]1 [2-methylimidazole]	> 10 µM	> 10 µM	> 10 µM	> 10 µM	> 10 µM	98.7%	97.4%	101%	97.8%	99%	96.7%	97.1%	112%	107%	117%	98.7%	97.4%	92.6%	107%	104%	95.3%	95.7%	89.7%	96.2%	91.5%	96.2%	97.8%	96.1%	94.9%	108%	0	0	0	0	0
